# Measured values from patent US20260007727A1, “DRUG THAT PROMOTES HEMOSTASIS” (BIOMEDIZINISCHE FORSCHUNG & BIO-PRODUKTE GMBH, priority 2022, published 2026).
# Where “and” joins values, the source holds several entries; their conditions need not be identical. Equal values may be shown once.
# System: rivaroxaban rabbit model
# Experiment: reversal of anticoagulation in a rivaroxaban rabbit model (claw cut)
# Format: in vivo, New Zealand White rabbits
# Method: In doing so, anesthetized New Zealand White rabbits were treated with the factor Xa inhibitor rivaroxaban to achieve anticoagulation. The increased tendency to bleed associated with anticoagulation was determined by cutting the claws. Upon intravenous administration of prethrombin-1, the blood loss was measured again after the claws had been cut.
smiles,measurement,setting,value
O=C(NC[C@H]1CN(c2ccc(N3CCOCC3=O)cc2)C(=O)O1)c1ccc(Cl)s1 [rivaroxaban],Blood loss after rivaroxaban,rivaroxaban 7 μg/kg body weight,22.3 mg
same,Blood loss after rivaroxaban,rivaroxaban 14 μg/kg body weight,11.3 mg
same,Blood loss after rivaroxaban,rivaroxaban 35 μg/kg body weight,30.4 mg
same,Blood loss after rivaroxaban,"rivaroxaban 70 μg/kg body weight, individual rabbits",165.0 mg and 98.7 mg and 20.8 mg and 51.8 mg and 77.4 mg and 108.5 mg and 51.2 mg
